The target in assay [1] is T1, angiotensin converting enzyme (Oryctolagus cuniculus, UniProt P12822).
T1 construct: A crude angiotensin converting enzyme supernatant is obtained by blending 1 gm. of rabbit lung acetone powder; tissue PelFreez Biologicals; host or cells: rabbit lung acetone powder
T1 sequence (P12822 34-1310): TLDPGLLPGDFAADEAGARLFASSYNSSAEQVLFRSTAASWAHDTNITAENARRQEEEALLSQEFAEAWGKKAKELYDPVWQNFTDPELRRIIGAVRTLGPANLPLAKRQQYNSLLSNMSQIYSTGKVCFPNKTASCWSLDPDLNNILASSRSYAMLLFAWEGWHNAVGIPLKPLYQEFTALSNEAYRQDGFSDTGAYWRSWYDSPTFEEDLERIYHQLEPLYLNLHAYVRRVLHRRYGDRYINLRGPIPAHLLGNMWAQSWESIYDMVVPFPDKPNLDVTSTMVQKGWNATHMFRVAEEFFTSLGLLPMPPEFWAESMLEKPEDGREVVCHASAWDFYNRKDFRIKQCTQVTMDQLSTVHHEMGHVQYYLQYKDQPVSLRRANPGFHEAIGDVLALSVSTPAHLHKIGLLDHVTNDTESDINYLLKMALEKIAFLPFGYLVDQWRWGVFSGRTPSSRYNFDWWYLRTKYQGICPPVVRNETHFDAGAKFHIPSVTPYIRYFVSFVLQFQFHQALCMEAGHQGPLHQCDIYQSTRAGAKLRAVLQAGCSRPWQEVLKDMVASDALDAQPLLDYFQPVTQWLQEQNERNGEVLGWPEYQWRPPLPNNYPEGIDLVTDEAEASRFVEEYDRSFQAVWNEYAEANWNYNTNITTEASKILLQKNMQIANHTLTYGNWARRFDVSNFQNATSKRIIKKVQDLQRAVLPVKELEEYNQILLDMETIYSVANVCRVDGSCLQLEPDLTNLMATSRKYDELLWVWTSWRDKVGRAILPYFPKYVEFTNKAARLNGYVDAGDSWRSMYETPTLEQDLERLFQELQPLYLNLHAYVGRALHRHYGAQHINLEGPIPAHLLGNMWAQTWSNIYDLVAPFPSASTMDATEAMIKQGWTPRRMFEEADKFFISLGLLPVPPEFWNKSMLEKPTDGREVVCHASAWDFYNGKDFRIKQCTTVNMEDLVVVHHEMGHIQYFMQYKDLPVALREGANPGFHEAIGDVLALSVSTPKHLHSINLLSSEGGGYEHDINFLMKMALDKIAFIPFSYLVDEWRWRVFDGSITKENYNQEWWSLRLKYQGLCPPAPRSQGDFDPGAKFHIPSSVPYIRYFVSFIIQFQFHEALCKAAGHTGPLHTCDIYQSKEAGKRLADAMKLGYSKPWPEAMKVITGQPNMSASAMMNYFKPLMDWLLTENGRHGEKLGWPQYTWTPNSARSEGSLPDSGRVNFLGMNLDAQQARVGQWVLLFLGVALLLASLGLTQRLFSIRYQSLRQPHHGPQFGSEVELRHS
As to the kind of experiment: Inhibition of hippuryl-L-histidyl-L-leucine hydrolysis by angiotensin converting enzyme. It is filed as biochemical. To be noted: rabbit lung ACE, substrate HHL 5 mM, 37° C., 30 min. The procedure:
The activity of the compounds of this invention was established by incubation of hippuryl-L-histidyl-L-leucine at 37° C. with angiotensin converting enzyme by the following procedure:
A crude angiotensin converting enzyme supernatant is obtained by blending 1 gm. of rabbit lung acetone powder (PelFreez Biologicals) with 35 ml. of 50 mM (buffered) potassium phosphate, pH 8.3 and centrifuging for 45 min. at 40,000×g.
The specific angiotensin converting enzyme substrate Hippuryl-L-histidyl-L-leucine (HHL-Sigma Chem. Co.) is prepared at 5 mM in 200 mM potassium phosphate buffer containing 757 mM NaCl at pH 8.3.
Incubation for the assay of HHL hydrolysis by angiotensin converting enzyme is carried out in a 37° C. gyrorotary incubator in disposable 13×100 mm tubes. Each 0.25 ml assay mixture contains the following components at the final concentrations: potassium phosphate buffer, 100 mM; NaCl, 300 mM; HHL, 5 mM; and enzyme 0.15 ml (10 mU approx.) added last to initiate the reaction. Zero time controls have 0.25 ml of 2N HCl added before the enzyme. The timed reactions are terminated with acid at 30 min. similarly and the hippuric acid freed from substrate is extracted into 1.5 ml of ethyl acetate layer is transferred to a clean tube. […]
The hippuric acid is resuspended in 1.0 ml of water, the absorbance at […] is determined, and the amount present is calculated from a standard curve. […]

The subject of assay [2] is male spontaneously hypertensive rats. As to the kind of experiment: Systolic blood pressure in male spontaneously hypertensive rats after oral administration. Type of assay: in vivo. The settings on record: groups of four rats; for Blood Pressure: systolic; for effect on systolic blood pressure (in words): oral administration. The procedure: Blood pressures were read prior to drug administration and at 1.5, 4 and 24 hours thereafter using a Decker Caudal Plethysmograph.

As a reminder, the IC50 is the midpoint of a concentration-inhibition curve.

Compound `NCCCC[C@H](NC(CCc1ccccc1)C(=O)O)C(=O)N(CC(=O)O)c1ccccc1` (mixture of isomers) [Example 2, N^α -(DL-1-carboxy-3-phenylpropyl)-L-lysyl-N-phenylglycine] returned an IC50 in assay [1] of 146 nM. The “Blood Pressure” value is on record as 196 mmHg in assay [2] (150 mg/kg PO, 1.5 hours) and 194 mmHg in assay [2] (150 mg/kg PO, 4 hours). In addition, the “effect on systolic blood pressure (in words)” value in assay [2] was “reduce systolic blood pressure”.

With “N^α -(DL-1-carboxy-3-phenylpropyl)-L-lysyl-N-p-methoxyphenylglycine [Example 3]”, the “Blood Pressure” value in assay [2] (50 mg/kg PO, 1.5 hours) is given as 183 mmHg; in assay [2] (50 mg/kg PO, 4 hours), 181 mmHg; in assay [2] (50 mg/kg PO, 24 hours), 204 mmHg. Moreover, the “effect on systolic blood pressure (in words)” value in assay [2] was “reduce systolic blood pressure”.

The values are drawn from US4487716A, “N-(1-Carboxy-3-phenylpropyl)-dipeptides” (American Home Products Corporation, priority 1982, dated 1984).
